How the values were obtained:
[1] = system: VEGF mRNA; test: VEGF mRNA expression (qPCR) in HIF-1α−/− fibroblasts; format: cell-based, murine; conditions: hypoxic conditions (1% O2), 1, 10 and 100 μM, vs. hypoxia control, FIG. 1B
Experimental: (§1) Total RNA was isolated from tissues and cells by using TRIzol™ Reagent (Invitrogen) and the RNeasy kit (Qiagen), respectively. 1 μg RNA was used for reverse transcription using SuperScript II First-Strand Synthersis System (Invitrogen). cDNA's were amplified in a SYR Green or TaqMan Universal Master Mix (Applied Biosystems). Quantitative PCR (qPCR) was performed on ABI Prism 7700 sequence detection system. PCR conditions are: 10 min at 95° C., 40 cycles of 15 seconds at 95° C. and 1 minute at 60° C. The relative amount of mRNA was calculated after normalization to β-actin.
(§2) Cells were cultured in DMEM (#11965-092, Invitrogen) supplemented with 10% fetal bovine serum (Invitrogen), 100 U/mL penicillin and […] streptomycin. For glucose deprivation, DMEM without glucose (#11966-025, Invitrogen) was used.
(§3) Mouse embryonic fibroblasts (MEFs) were isolated from E12.5 embryos and immortalized by stable transfection with SV40 large T antigen.

[2] = system: sVEGFR-1; test: sVEGFR-1 transcription in bone marrow-derived macrophages (LysMcre control vs HIF-2αflox/flox/LysMcre); format: cell-based, mice; conditions: p=0.036, FIG. 11F
Text: HIF-2α^flox/flox mice (originally developed by Dr. Celeste Simon, University of Pennsylvania) and LysMcre recombinase mice (originally developed by Irmgard Foerster, University of Duesseldorf) (both purchased from The Jackson Laboratory, Bar Harbor, Me.) were crossed to generate mice homozygous for both LysMcre and the floxed HIF-2α allele. LysMcre recombinase mice, which express no floxed alleles, were used as controls. Deletion of HIF-2α in HIF-2α^flox/flox/LysMcre macrophages, but not the LysMcre control macrophages, was confirmed at the transcript level by real-time PCR.
To generate bone marrow-derived macrophages (BDMs), femoral bone marrow was isolated and progenitor cells were plated in RPMI-1640 supplemented with 10% FBS, 1% PSA, 10 μg/mL of polymyxin B, and 20 ng/mL of recombinant murine M-CSF. Cells were cultured for 5 days with the addition of fresh M-CSF every other day. […]
Human monocytes were left untreated or were stimulated with 100 ng/mL GM-CSF at normoxia or at 0.5% O2. […] Data were analyzed according to the comparative threshold method and normalized against the β-actin internal control transcript. Results are semi-quantitative and represent the fold difference in transcript levels in a particular sample as compared with levels in untreated cells from the same donor. […]

[3] = system: VEGF mRNA; test: VEGF mRNA expression (qPCR) in wild type murine embryonic fibroblasts; format: cell-based; conditions: hypoxic conditions (1% O2), 1, 10 and 100 μM, vs. hypoxia control, FIG. 1A
Experimental: as §1, §2, §3

O=C(O)CNC(=O)c1ncc(-c2cccc(F)c2)cc1O [disclosed HIF-2α stabilizer, {[5-(3-Fluorophenyl)-3-hydroxypyridine-2-carbonyl]amino} acetic acid]
VEGF mRNA (relative amount) [1]: dramatic reduction
sVEGFR-1 transcription [2]: induced
VEGF mRNA (relative amount) [3]: dramatic reduction
